Results on 2 molecules are retold here after ChEMBL document CHEMBL3638792, “Indazoles” (2014).

The target of assay [1] is Tyrosine-protein kinase JAK1 (Homo sapiens, UniProt P23458). Nature of the assay: High ATP Caliper Endpoint Assay: JAK1 enzyme (Invitrogen) stock solution is made up at 5.2 uM in sterile water. JAK1 enzyme stock is diluted to 20 nM in assay buffer (10 mM HEPES free acid pH 7.5, 10 mM HEPES free base pH 7.5, 10 mM MgCL2, 0.0005% Tween-20, 0.01% BSA) containing 2 mM DTT (all supplied by Sigma) with the addition of one protease tablet per 25 mls buffer (Roche). ATP is made up at 10 mM stock in sterile water and diluted to 5 mM in assay buffer. Peptide H236 (Caliper Life Sciences) is made up at 1.5 mM in 100% DMSO and diluted to 3 uM in assay buffer. Stop buffer comprises 140 mM HEPES, 22.5 mM EDTA (Sigma) and 0.15% coating reagent (Caliper Life Sciences).Assays are performed in Greiner polypropylene 384 well plates. Following compound preparation within the plate 10 ul of enzyme in assay buffer containing DTT is added using a Multidrop Micro. Final assay concentration of enzyme is 10 nM. Compound and enzyme are pre-incubated for 30 minutes at room temperature.

Assay [2] has as its target T1, Tyrosine-protein kinase JAK3 (Homo sapiens, UniProt P52333).
T1 sequence (P52333 whole entry): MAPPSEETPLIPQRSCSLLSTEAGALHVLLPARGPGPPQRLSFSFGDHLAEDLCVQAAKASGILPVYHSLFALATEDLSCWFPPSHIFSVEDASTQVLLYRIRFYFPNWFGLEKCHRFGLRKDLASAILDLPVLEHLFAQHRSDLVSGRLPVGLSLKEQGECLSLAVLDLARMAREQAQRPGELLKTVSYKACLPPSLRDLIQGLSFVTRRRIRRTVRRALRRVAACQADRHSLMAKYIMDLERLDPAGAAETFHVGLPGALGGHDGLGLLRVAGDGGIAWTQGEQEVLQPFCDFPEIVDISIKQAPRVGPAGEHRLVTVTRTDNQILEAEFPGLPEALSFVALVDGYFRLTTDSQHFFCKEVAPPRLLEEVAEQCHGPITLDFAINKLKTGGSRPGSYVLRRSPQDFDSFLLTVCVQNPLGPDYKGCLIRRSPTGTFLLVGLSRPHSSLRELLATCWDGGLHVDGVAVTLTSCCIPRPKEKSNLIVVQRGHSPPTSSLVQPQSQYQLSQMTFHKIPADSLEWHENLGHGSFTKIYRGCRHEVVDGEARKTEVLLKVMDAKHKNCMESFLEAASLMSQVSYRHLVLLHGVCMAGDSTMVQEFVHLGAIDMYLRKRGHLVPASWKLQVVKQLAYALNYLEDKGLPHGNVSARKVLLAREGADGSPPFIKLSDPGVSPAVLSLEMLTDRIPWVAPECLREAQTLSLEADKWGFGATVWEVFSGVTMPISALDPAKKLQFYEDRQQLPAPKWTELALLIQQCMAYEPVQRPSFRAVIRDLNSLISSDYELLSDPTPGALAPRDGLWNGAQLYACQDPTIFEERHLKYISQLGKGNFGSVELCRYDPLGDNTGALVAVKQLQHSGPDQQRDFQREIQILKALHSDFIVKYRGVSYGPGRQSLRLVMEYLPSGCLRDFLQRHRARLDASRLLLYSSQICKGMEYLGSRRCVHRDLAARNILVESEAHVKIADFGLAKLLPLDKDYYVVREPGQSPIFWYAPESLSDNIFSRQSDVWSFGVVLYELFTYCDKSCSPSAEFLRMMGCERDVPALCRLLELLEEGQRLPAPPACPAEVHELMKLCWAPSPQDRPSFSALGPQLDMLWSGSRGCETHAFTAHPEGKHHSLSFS
Nature of the assay: High ATP Caliper Endpoint Assay: JAK3 enzyme (Invitrogen) stock solution is made up at 4.1 uM in sterile water. JAK3 enzyme stock is diluted to 2 nM in assay buffer (10 mM HEPES free acid pH 7.5, 10 mM HEPES free base pH 7.5, 10 mM MgCL2, 0.0005% Tween-20, 0.01% BSA) containing 2 mM DTT (all supplied by Sigma). ATP is made up at 10 mM stock in sterile water and diluted to 800 uM in assay buffer. ….

Chain of Tyrosine-protein kinase JAK1 (P23458 whole entry): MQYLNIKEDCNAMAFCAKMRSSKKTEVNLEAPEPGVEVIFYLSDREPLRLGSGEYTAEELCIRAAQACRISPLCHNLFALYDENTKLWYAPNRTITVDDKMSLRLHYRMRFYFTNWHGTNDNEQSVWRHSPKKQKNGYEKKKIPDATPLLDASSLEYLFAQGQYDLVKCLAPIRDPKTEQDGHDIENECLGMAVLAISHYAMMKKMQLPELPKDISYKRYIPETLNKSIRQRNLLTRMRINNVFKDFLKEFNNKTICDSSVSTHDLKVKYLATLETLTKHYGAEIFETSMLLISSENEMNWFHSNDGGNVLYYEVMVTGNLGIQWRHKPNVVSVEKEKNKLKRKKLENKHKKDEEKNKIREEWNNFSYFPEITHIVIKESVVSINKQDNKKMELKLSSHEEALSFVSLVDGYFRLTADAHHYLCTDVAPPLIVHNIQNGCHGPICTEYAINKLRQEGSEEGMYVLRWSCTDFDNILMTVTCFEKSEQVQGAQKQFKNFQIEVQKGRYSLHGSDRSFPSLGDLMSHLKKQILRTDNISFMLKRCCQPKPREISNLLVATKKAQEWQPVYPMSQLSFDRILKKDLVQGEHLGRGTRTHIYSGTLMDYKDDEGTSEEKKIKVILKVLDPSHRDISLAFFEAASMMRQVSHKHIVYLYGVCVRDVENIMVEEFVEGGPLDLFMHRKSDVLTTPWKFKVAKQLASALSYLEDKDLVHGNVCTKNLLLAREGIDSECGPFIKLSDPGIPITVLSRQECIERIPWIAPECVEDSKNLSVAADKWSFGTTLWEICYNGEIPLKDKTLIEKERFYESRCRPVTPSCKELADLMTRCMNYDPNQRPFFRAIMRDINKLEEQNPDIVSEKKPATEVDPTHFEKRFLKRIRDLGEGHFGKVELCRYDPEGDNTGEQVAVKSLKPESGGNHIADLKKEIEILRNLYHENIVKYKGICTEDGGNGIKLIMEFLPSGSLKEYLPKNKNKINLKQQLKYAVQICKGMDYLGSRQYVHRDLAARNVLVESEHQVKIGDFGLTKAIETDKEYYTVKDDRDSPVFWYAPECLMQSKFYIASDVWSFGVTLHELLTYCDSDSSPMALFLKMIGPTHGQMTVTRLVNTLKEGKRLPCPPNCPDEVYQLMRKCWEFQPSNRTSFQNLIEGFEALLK

For `CCc1cc(O)c(F)cc1-c1ccc2c(-c3nc4c([nH]3)CCN(C(=O)c3ccc(C#N)nc3)CC4)n[nH]c2c1`, the IC50 in assay [1] was 3.4 nM; in assay [2], 1.4 nM.

For `CCc1cc(O)c(F)cc1-c1ccc2c(-c3nc4c([nH]3)CCN(Cc3ccc5ncccc5c3)C4)n[nH]c2c1`, the 50% inhibitory concentration (IC50) in assay [1] amounted to 4.2 nM; in assay [2], 1.4 nM.

A word on the IC50: it is the concentration needed to halve the response being measured. A higher IC50 goes with weaker potency.
